Structures can show the parent of a compound that is named as a salt. Where two headings read alike, the source gives them in different places.
Experiments:
[1] = molecular target: human histamine H1 receptor (Homo sapiens, UniProt P35367); test: In vitro human histamine H1 receptor binding experiment ([3H]pyrilamine, HEK293A cells stably expressing the receptor); settings: [3H]pyrilamine 3 nmol/L, room temperature 60 minutes
Protocol: Recombinant human histamine H1 receptor plasmid (prepared by Invitrogen) was transfected to HEK293A cells with Lipofectamine 2000 (Invitrogen). Cells stably expressing human histamine H1 receptor were screened with Geneticin (Invitrogen). The cells were continued to be cultured using a Dulbecco's Modified Eagle Medium containing 10% fetal bovine serum, 0.1 mmol/L MEM Non-Essential Amino Acids Solution, 2 mmol/L L-glutamine and 0.7 mg/mL Geneticin in a 5% CO2 incubator at 37° C. The cells stably expressing human histamine H1 receptor were prepared using 50 mmol/L Tris-HCl (pH 7.5) (hereinafter referred to as buffer) containing 0.1% bovine serum albumin, so as to have a concentration of 3×10^6 cells/mL, to give a cell sample preparation. Fifty microliters of the buffer, 50 μL of a test substance solution at various concentrations, and 50 μL of [^3H]pyrilamine solution (final concentration: 3 nmol/L) were added to each of the wells on the 96-well plate, and stirred, and 100 μL of the cell sample preparation was then added thereto (at a concentration of 3×10^5 cells/well) to initiate the reaction.
The cells were incubated at room temperature for 60 minutes, and then filtered on UniFilter GF/C plate (Packard) immersed in 0.5% polyethyleneimine using a cell harvester (IH-110, INNOTECH CORPORATION), to stop the reaction, and the plate was washed with the buffer. The plate after washing was sufficiently dried, and 20 μL of a scintillator (MaxiLight, manufactured by Hidex) was added thereto, and count per minute (cpm) was measured with a multi-labeled microplate reader (Plate Chameleo II, Hidex). The nonspecific binding was cpm in a case where 30 μmol/L pyrilamine was added. The experiments were carried out at n=3, and at least repeated 3 times.

cerebral H1 receptor = molecular target: T1, cerebral H1 receptor (Mus musculus, UniProt P70174); test: Murine cerebral H1 receptor occupying content (ex vivo, 3H-pyrilamine binding in brain homogenate after oral administration)
T1 construct: The excised brain tissue was homogenized with Polytron (Kinematica); from tissue; host or cells: ICR mouse brain (entire brain except cerebellum and medulla oblongata), homogenate
Protocol: A 6-week-old ICR male mouse was previously fed for one week or more by allowing the mouse to take a solid feed and tap water ad libitum, under the environment setting of a temperature of 22° C., humidity of 55% and an artificial illumination of 12 hours a day, and the mouse was fasted overnight to be used for the experiment. A substance to be tested was dissolved with water for injection or suspended in 0.5% carboxymethyl cellulose solution, and the solution or suspension was orally administered to the mouse (dose volume: 0.1 mL/10 g body weight). After 1 hour from the oral administration, the mouse was decapitated, and the entire brain, except for cerebellum and medulla oblongatae, was rapidly excised. The excised brain tissue was homogenized with Polytron (Kinematica) in an ice-cooled 50 mmol/L phosphate buffered saline (pH 7.4, 100 mg/1.9 mL).
To a test tube for reaction (TPX-Tube) were added 180 μL of the brain homogenate, and 10 μL of ^3H-pyrilamine solution (final concentration: 2 nmol/L) and 10 μL of a non-labeled pyrilamine solution (final concentration: 200 μmol/L) or a 50 mmol/L phosphate buffered saline, and the mixture was incubated at room temperature for 45 minutes, and 2.0 mL of an ice-cooled, 50 mmol/L phosphate buffered saline was then added thereto to stop the reaction. The reaction mixture was filtered with a GF/B filter ([…]), and the filtrate was placed in a vial and dried overnight at 60 degrees. After drying, 10 mL of a scintillator (AL-1, toluene-based, DOJINDO LABORATORIES) was added to the product, and the disintegration per minute (dpm) was measured with a liquid scintillation counter (Packard, U.S.A., TRI-CARB 2700TR) (5 minutes/vial).

[2] = system: histamine-induced vascular hyperpermeability; test: Rat histamine-induced vascular hyperpermeability reaction (in vivo antihistamine action); settings: SD male rat, oral administration, histamine injected intracutaneously 1 hour after administration, leaked Evans Blue
Protocol: An SD male rat (SPF) of 180 g in weight was previously fed for one week or more by allowing the rat to take a solid feed and tap water ad libitum, under the environment setting of a temperature of 22° C., humidity of 55% and an artificial illumination of 12 hours a day (light phase 8 am to 8 pm), and the rat was fasted overnight to be used for the experiment. Histamine.dihydrochloride (hereinafter referred to as histamine) and Evans Blue were used by dissolving each in physiological saline upon use. A substance to be tested was dissolved in water for injection or suspended in 0.5% carboxymethyl cellulose sodium, and the rat was orally administered with the solution or suspension (dose volume: 5 mL/kg body weight). After 1 hour from the administration, the physiological saline and the histamine solution were each intracutaneously injected to two locations (20 μg/0.05 ml/location) each on a back part of the rat of which hair was sheared with an electric clipper while anesthetizing with an ether. A 0.5% Evans Blue-containing physiological saline was injected into the tail vein of the rat (1 mL/200 g body weight) immediately before the intracutaneous injection of the histamine.
After 30 minutes, the animal was decapitated, and exsanguinated, and the skin was removed to measure an amount of leaked pigment in the blue-stained portion. The measurement of the amount of leaked pigment was carried out as follows. Skins of the pigment leaking site were cut out at two locations, 1 mL of a 2 mol/L aqueous potassium hydroxide solution was added thereto in a test tube, and the test tube was allowed to stand overnight at 37° C. to dissolve. Thereafter, 6 mL of a 1:3 mixed solution of 0.67 mol/L phosphoric acid and acetone was added to the solution, and the mixture was vigorously shaken for 10 minutes. Thereafter, the mixture was filtered, and the absorbance of the filtrate at 620 nm was measured. The absorbance obtained from the two locations of the sites injected with physiological saline, as blank value, was used for a compensation. The amount of leaked pigment was calculated from the calibration curve of Evans Blue at 620 nm.

[3] = ICR male mouse, oral administration, brain excised after 1 hour, larger ID50 = lower brain transfer, read-out: ID50 (the source's name)

T1 sequence (P70174 whole entry): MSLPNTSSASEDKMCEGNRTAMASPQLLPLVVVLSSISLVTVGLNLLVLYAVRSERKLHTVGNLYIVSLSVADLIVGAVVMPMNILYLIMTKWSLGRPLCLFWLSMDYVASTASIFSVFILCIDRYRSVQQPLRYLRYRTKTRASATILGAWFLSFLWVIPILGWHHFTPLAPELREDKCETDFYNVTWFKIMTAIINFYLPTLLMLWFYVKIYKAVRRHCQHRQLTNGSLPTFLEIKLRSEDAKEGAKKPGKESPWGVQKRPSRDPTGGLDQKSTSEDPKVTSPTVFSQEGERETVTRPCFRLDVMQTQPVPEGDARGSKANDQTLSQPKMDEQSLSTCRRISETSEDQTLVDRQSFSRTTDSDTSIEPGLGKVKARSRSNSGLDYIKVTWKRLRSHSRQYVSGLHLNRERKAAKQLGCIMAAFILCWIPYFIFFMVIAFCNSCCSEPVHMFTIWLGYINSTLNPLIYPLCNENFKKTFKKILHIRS
Sequence of human histamine H1 receptor (P35367 whole entry): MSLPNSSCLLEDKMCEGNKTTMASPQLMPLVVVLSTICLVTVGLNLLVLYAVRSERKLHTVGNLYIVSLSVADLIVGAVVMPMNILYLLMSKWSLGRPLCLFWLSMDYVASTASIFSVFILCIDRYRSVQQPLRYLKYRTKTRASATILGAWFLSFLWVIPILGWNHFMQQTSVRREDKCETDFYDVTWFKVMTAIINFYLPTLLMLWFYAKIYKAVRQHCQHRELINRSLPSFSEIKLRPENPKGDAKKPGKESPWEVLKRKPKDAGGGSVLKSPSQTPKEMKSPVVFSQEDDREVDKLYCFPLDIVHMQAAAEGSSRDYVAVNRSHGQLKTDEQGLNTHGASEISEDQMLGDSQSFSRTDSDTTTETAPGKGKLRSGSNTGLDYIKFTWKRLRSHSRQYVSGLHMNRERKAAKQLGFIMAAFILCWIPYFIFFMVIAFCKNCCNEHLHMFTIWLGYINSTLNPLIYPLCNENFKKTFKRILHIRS

CCOC(=O)c1ccc2c(c1)C(=CCCN(C)C)c1sccc1CO2 [Compound 3, Ethyl (E,Z)-4-(3-dimethylaminopropylidene)-4,10-dihydro-9-oxa-3-thiabenzo[f]azulene-6-carboxylate hydrochloride]
IC50 [1]: 0.0222 µM

CN(C)CCC=C1c2ccccc2CCc2sc(C(=O)NCCO)cc21 [Compound 9, (E,Z)-4-(3-Dimethylaminopropylidene)-9,10-dihydro-4H-1-thiabenzo[f]azulene-2-carboxylic-(2-hydroxyethyl)amide hydrochloride]
IC50 [1]: 0.0557 µM

CCOC(=O)/C=C/c1ccc2c(c1)/C(=C/CCN(C)C)c1sccc1CO2 [Compound 13, Ethyl (E,Z)-3-[4-(3-dimethylaminopropylidene)-4,10-dihydro-9-oxa-3-thiabenzo[f]azulen-6-yl]acrylate hydrochloride]
IC50 [1]: 0.0324 µM

CN(C)CC/C=C1/c2ccccc2CCc2sc(C(=O)O)cc21 [Compound 16, (Z)-[4-(3-Dimethylaminopropylidene)-9,10-dihydro-4H-1-thiabenzo[f]azulen-2-yl]carboxylic acid]
ED50 (cerebral H1 receptor; [3]): 45.8 mg/kg | ED50 ([2]; read-out: ED50): 0.299 mg/kg

CN(C)CC/C=C1/c2ccccc2CCc2sc(CC(=O)O)cc21.Cl [Compound 18, (Z)-[4-(3-Dimethylaminopropylidene)-9,10-dihydro-4H-1-thiabenzo[f]azulen-2-yl]acetic acid hydrochloride]
ED50 (cerebral H1 receptor; mouse, po, 1 h, read-out: ID50): 2.1 mg/kg | ED50 ([2]; read-out: ED50): 0.063 mg/kg

CN(C)CC/C=C1/c2cc(CC(=O)O)ccc2OCc2ccsc21 [Compound 20, (Z)-[4-(3-Dimethylaminopropylidene)-4,10-dihydro-9-oxa-3-thiabenzo[f]azulen-6-yl]acetic acid]
ED50 (cerebral H1 receptor; [3]): 109 mg/kg | ED50 ([2]; read-out: ED50): 0.45 mg/kg

CCOC(=O)C(C)(C)c1ccc2c(c1)C(=CCCN(C)C)c1sccc1CO2 [Compound 21, Ethyl (E,Z)-2-[4-(3-dimethylaminopropylidene)-4,10-dihydro-9-oxa-3-thiabenzo[f]azulen-6-yl]-2-methylpropionate hydrochloride]
IC50 [1]: 0.0747 µM

CN(C)CCC=C1c2ccccc2CCc2sc(C(C)(C)C(=O)O)cc21 [Compound 23, (E,Z)-2-[4-(3-Dimethylaminopropylidene)-9,10-dihydro-4H-1-thiabenzo[f]azulen-2-yl]-2-methylpropionic acid]
IC50 [1]: 0.0746 µM

CNCC/C=C1\c2cc(C(C)(C)C(=O)O)ccc2OCc2ccsc21 [Compound 25, (E)-{2-Methyl-2-[4-(3-methylaminopropylidene)-4,10-dihydro-9-oxa-3-thiabenzo [f]azulen-6-yl]}propionic acid]
ID50 (cerebral H1 receptor; ICR male mouse, oral administration, brain excised after 1 hour, larger ID50 = lower brain transfer): >200 mg/kg | ED50 [2]: 5.70 mg/kg

O=C(O)Cc1ccc2c(c1)/C(=C/CCN1CCOCC1)c1sccc1CO2 [Compound 33, (Z)-{4-[3-(Morpholin-4-yl)propylidene]-4,10-dihydro-9-oxa-3-thiabenzo[f]azulen-6-yl}acetic acid]
ED50 (cerebral H1 receptor; [3]): 21.1 mg/kg | ED50 ([2]; read-out: ED50): ~0.3 mg/kg

O=C(O)Cc1ccc2c(c1)/C(=C/CCN1CCCCC1)c1sccc1CO2 [Compound 35, (Z)-{4-[3-(Piperidin-1-yl)propylidene]-4,10-dihydro-9-oxa-3-thiabenzo[f]azulen-6-yl}acetic acid]
ED50 (cerebral H1 receptor; [3]): 65.7 mg/kg | ED50 ([2]; read-out: ED50): ~0.1 mg/kg

CN(CC/C=C1\c2cc(CC(=O)O)ccc2OCc2ccsc21)Cc1ccccc1 [Compound 40]
IC50 [1]: 0.0191 µM

O=C(O)Cc1ccc2c(c1)/C(=C\CCNCc1ccccc1)c1sccc1CO2 [Compound 42, (E)-[4-(3-Benzylaminopropylidene)-4,10-dihydro-9-oxa-3-thiabenzo[f]azulen-6-yl]acetic acid]
IC50 [1]: 0.0998 µM

O=C(O)Cc1ccc2c(c1)/C(=C\CCN1CCN(c3ccccc3)CC1)c1sccc1CO2 [Compound 54, (E)-{4-[3-(4-Phenylpiperadin-1-yl)propylidene]-4,10-dihydro-9-oxa-3-thiabenzo[f]azulen-6-yl}acetic acid]
IC50 [1]: 0.0109 µM

O=C(O)Cc1ccc2c(c1)/C(=C/CCN1CCN(c3ccccc3)CC1)c1sccc1CO2 [Compound 55, (Z)-{4-[3-(4-Phenylpiperadin-1-yl)propylidene]-4,10-dihydro-9-oxa-3-thiabenzo[f]azulen-6-yl}acetic acid]
IC50 [1]: 0.0196 µM

CN(C)CC/C=C1\c2cc(CCC(=O)O)ccc2OCc2sccc21 [Compound 56, (E)-3-[4-(3-Dimethylaminopropylidene)-4,10-dihydro-9-oxa-1-thiabenzo[f]azulen-6-yl]propionic acid hydrochloride]
IC50 [1]: 0.029 µM

O=C(O)Cc1ccc2c(c1)/C(=C\CCN1CCC(=O)CC1)c1sccc1CO2 [Compound 62, (E)-{4-[3-(4-Oxopiperidin-1-yl)propylidene]-4,10-dihydro-9-oxa-3-thiabenzo[f]azulen-6-yl}acetic acid]
IC50 [1]: 0.0605 µM

CN(C)CC/C=C1\c2cc(CC(=O)O)ccc2CCc2ccsc21 [Compound 64, (E)-[4-(3-Dimethylaminopropylidene)-9,10-dihydro-4H-3-thiabenzo[f]azulen-6-yl]acetic acid]
IC50 [1]: 0.00856 µM

CN(C)CC/C=C1/c2cc(CC(=O)O)ccc2CCc2ccsc21 [Compound 65, (Z)-[4-(3-Dimethylaminopropylidene)-9,10-dihydro-4H-3-thiabenzo[f]azulen-6-yl]acetic acid hydrochloride]
IC50 [1]: 0.014 µM

O=C(O)Cc1ccc2c(c1)/C(=C\CCN1CCC(N3CCCCC3)CC1)c1sccc1CO2 [Compound 66, (E)-{4-[3-([1,4′]Bipiperidin-1′-yl)propylidene]-4,10-dihydro-9-oxa-3-thiabenzo[f]azulen-6-yl}acetic acid diformate]
IC50 [1]: 0.0312 µM

O=C(O)Cc1ccc2c(c1)C(=CCCN1CCSCC1)c1sccc1CO2 [Compound 68, (E,Z)-{4-[3-(Thiomorpholin-4-yl)propylidene]-4,10-dihydro-9-oxa-3-thiabenzo[f]azulen-6-yl}acetic acid]
IC50 [1]: 0.0452 µM

CC(C)(C(=O)O)c1cc2c(s1)CCc1ccccc1/C2=C\CCN1CCCC1 [Compound 69, (E,Z)-2-Methyl-2-{4-[3-(pyrrolidin-1-yl)propylidene]-9,10-dihydro-4H-1-thiabenzo[f]azulen-2-yl}propionic acid]
IC50 [1]: 0.0538 µM

CN1CCC(=C2c3ccccc3CC(=O)c3sccc32)CC1 [Ketotifen, reference compound]
ED50 ([2]; read-out: ED50): 0.54 mg/kg
